Among the data in patent US20210154190A1, “SHP2 INHIBITOR COMPOSITIONS AND METHODS FOR TREATING CANCER” (Revolution Medicines, Inc., priority 2018, published 2021) are Cellular sensitivity values, retold here.

Molecules are shown by their SMILES.

In the test the target is T1, SHP2 A72V (Homo sapiens, UniProt Q06124, A72V).
T1 construct: expressed in transfected cells; host or cells: Flp-In T-REx-293 (T-REx-293-SHP2)
The test can be described thus: EGF-induced pERK AlphaLISA in T-REx-293-SHP2 cells, A72V. Type of test: cell-based. The conditions noted are these: Variant A72V. The procedure: An experimental system was creating to test the activity of SHP2 mutants on an isogenic background (FIG. 6). The Flp-In T-REx-293 cell line was obtained from Gibco® and cultivated in high glucose DMEM™ containing 2 mM L-glutamine (Hyclone®), supplemented with 10% FBS (Hyclone®), 1% penicillin/streptomycin (Gibco®), 100 μg/mL Zeocin™ (Gibco®), and 15 μg/mL blasticidin (Gibco®) in a humidified cell culture incubator at 37° C., 5% CO2.
Wild type or mutant SHP2 variants were synthesized and subcloned into the pcDNA5/FRT/TO vector (ThermoFisher). Plasmids were co-transfected with the pOG44 Flp recombinase expression plasmid (ThermoFisher®) into Flp-In T-REx-293 cells using X-tremegene 9 DNA transfection reagent (Sigma®), according to the manufacturer's instructions. […]
For the final 5 minutes of drug treatment, cells were stimulated with 50 ng/mL Epidermal Growth Factor (Sigma®). […] Samples were read using an EnVision Multilabel Plate Reader (Perkin Elmer®) using standard AlphaLISA settings. Assay data was plotted and EC50 values were determined using four-parameter concentration-response model in GraphPad Prism 7. […]
In general terms: In Alpha technology, singlet oxygen from a donor bead excites a nearby acceptor bead.

Regarding `Cc1nc(N2CCC3(CC2)CO[C@@H](C)[C@H]3N)c(CO)nc1-c1cccc(Cl)c1Cl` [Compound B], the Cellular sensitivity result is listed as “no (Sensitive if IC50 < 2000 nM)”.
